{"source": "patent US20240252493A1", "about": "“Apelin Receptor Modulators for Treating Age-Related Muscle Conditions” (BIOAGE LABS, INC., priority 2021, published 2024)", "key": {"[1]": {"system": "Pax7, MyoD, MyoG, Myf5, MyHC3, and MyHC8", "test": "CTX-induced muscle injury: transcript levels of regeneration genes", "format": "in vivo, mice", "method": "Impairment of muscle regeneration can contribute to age-related muscle weakness. This is particularly true in aged individuals who engage in physical activity. Exercise-induced muscle hypertrophy is linked to the capacity of muscle stem cells to be activated and promote regeneration. […] Mice were i.p injected with buprenorphine (Centravet, 0.1 mg/kg) 30 minutes before injury and the day after. The day of the injury, mice were anesthetized with isoflurane inhalation and hindlimbs were shaved. Then, 10 μM of cardiotoxin (CTX, Latoxan, #L8102) was injected through two injections of 25 μl into the left tibialis muscle and two injections of 50 μl into the left gastrocnemius muscle, using a 22-gauge needle (Hamilton). Mice were euthanized 3 and 7 days after injury by cervical dislocation, muscles (PBS- and CTX-injected) were cut in two parts, one being snap frozen into liquid nitrogen for total RNA extraction and the other part being embedded into OCT, frozen in isopentane cooled with liquid nitrogen for histological analysis."}, "tibialis of aged mice": {"system": "tibialis of aged mice", "test": "CTX-induced muscle injury: histology (cross-sectional area, centrally nucleated fibers)", "format": "in vivo", "method": "Impairment of muscle regeneration can contribute to age-related muscle weakness. This is particularly true in aged individuals who engage in physical activity. Exercise-induced muscle hypertrophy is linked to the capacity of muscle stem cells to be activated and promote regeneration.\nMice were i.p injected with buprenorphine (Centravet, 0.1 mg/kg) 30 minutes before injury and the day after. The day of the injury, mice were anesthetized with isoflurane inhalation and hindlimbs were shaved. Then, 10 μM of cardiotoxin (CTX, Latoxan, #L8102) was injected through two injections of 25 μl into the left tibialis muscle and two injections of 50 μl into the left gastrocnemius muscle, using a 22-gauge needle (Hamilton). Mice were euthanized 3 and 7 days after injury by cervical dislocation, muscles (PBS- and CTX-injected) were cut in two parts, one being snap frozen into liquid nitrogen for total RNA extraction and the other part being embedded into OCT, frozen in isopentane cooled with liquid nitrogen for histological analysis.\nMouse muscle samples were dissected and cryopreserved in OCT frozen in liquid nitrogen cooled isopentane. Samples were then sectioned at 10 μm on a cryostat and post-fixed with 4% Paraformaldehyde (PFA) for 15min at room temperature. Muscle frozen sections (10 μm) were stained by helaun/eosin or immune-labeled for laminin (Abcam) and embryonic myosin. Briefly, sections were blocked 1 h in PBS plus 4% BS(a), 2% goat serum, 0.01% Triton X-100. Sections were then incubated overnight with primary antibodies. After washes in PBS, sections were incubated 1 h with secondary antibodies anti-Ig2b AF 488 (Life Technology). Slides were finally mounted in ProLong Gold antifade Reagent (Molecular probes by Life Technology) with DAPI. Images were captured using a digital camera (Nanozoomer, Hamamatsu) attached to a motorized fluorescence microscope or using Olympus VS120 Virtual Microscopy Slide Scanning System. The area covered by eMHC-positive fibers and degenerated area was determined manually across the entire sections using the VS-ASW FL software measurement tools. The size of myofibers with central nuclei was calculated from laminin/DAPI staining on all fibers of the section and area determination were performed across the entire sections, using an automated image processing algorithm developed internally using the MetaXpress software (Molecular Devices)."}, "[2]": {"conditions": "gastrocnemius, aged mice, 3 or 7 days, apelin 0.5 μmol/kg/day, BGE-105 50 and 200 mg/kg/day"}, "[3]": {"conditions": "gastrocnemius, young mice, 3 or 7 days, apelin 0.5 μmol/kg/day, BGE-105 50 and 200 mg/kg/day"}, "[4]": {"conditions": "tibialis anterior, aged mice, 7 days, apelin 0.5 μmol/kg/day, BGE-105 50 and 200 mg/kg/day"}, "[5]": {"conditions": "tibialis, young mice, 3 or 7 days, apelin 0.5 μmol/kg/day, BGE-105 50 and 200 mg/kg/day"}}}
{"smiles": "CSCC[C@H](NC(=O)[C@@H]1CCCN1C(=O)CNC(=O)[C@H](CCCCN)NC(=O)[C@H](Cc1c[nH]cn1)NC(=O)[C@H](CO)NC(=O)[C@H](CC(C)C)NC(=O)[C@H](CCCNC(=N)N)NC(=O)[C@@H]1CCCN1C(=O)[C@H](CCCNC(=N)N)NC(=O)[C@@H]1CCC(=O)N1)C(=O)N1CCC[C@H]1C(=O)N[C@@H](Cc1ccccc1)C(=O)O", "note": "[Pyr^1-Apelin-13, reference compound]", "values": [{"measurement": "Pax7 transcript levels", "setting": "[1]; gastrocnemius, aged (18-month-old) mice, 3 or 7 days, apelin 0.5 μmol/kg/day, BGE-105 50 and 200 mg/kg/day", "result": "no significant change"}, {"measurement": "MyoD transcript levels", "setting": "[1]; gastrocnemius, aged mice, 3 and 7 days, apelin 0.5 μmol/kg/day, BGE-105 50 and 200 mg/kg/day", "result": "significant increase"}, {"measurement": "Myf5 transcript levels", "setting": "[1]; [2]", "result": "no significant change"}, {"measurement": "MyoG transcript levels", "setting": "[1]; [2]", "result": "no significant change"}, {"measurement": "MyHC8 transcript levels", "setting": "[1]; gastrocnemius, aged mice, any time point, any treatment", "result": "does not show a change"}, {"measurement": "Pax7 transcript levels", "setting": "[1]; gastrocnemius, young (3-month-old) mice, 3 or 7 days, apelin 0.5 μmol/kg/day, BGE-105 50 and 200 mg/kg/day", "result": "no change"}, {"measurement": "Myf5 transcript levels", "setting": "[1]; [3]", "result": "no change"}, {"measurement": "MyoD transcript levels", "setting": "[1]; [3]", "result": "no change"}, {"measurement": "MyoG transcript levels", "setting": "[1]; [3]", "result": "no change"}, {"measurement": "MyHC8 transcript levels", "setting": "[1]; gastrocnemius, young mice, 3 days, apelin 0.5 μmol/kg/day, BGE-105 50 and 200 mg/kg/day", "result": "non-significant increase"}, {"measurement": "Pax7 transcript levels", "setting": "[1]; tibialis anterior, aged (18-month-old) mice, 7 days post cardiotoxin, apelin 0.5 μmol/kg/day, BGE-105 50 and 200 mg/kg/day", "result": "significant increase"}, {"measurement": "MyoD transcript levels", "setting": "[1]; tibialis anterior, aged mice, 3 and 7 days post cardiotoxin, apelin 0.5 μmol/kg/day, BGE-105 50 and 200 mg/kg/day", "result": "significant increase"}, {"measurement": "MyHC3 transcript levels", "setting": "[1]; [4]", "result": "significant increase"}, {"measurement": "Myf5 transcript levels", "setting": "[1]; [4]", "result": "significant change"}, {"measurement": "MyoG transcript levels", "setting": "[1]; [4]", "result": "significant increase"}, {"measurement": "Pax7 transcript levels", "setting": "[1]; tibialis, young (3-month-old) mice, 3 or 7 days, apelin 0.5 μmol/kg/day, BGE-105 50 and 200 mg/kg/day", "result": "no change"}, {"measurement": "MyHC3 transcript levels", "setting": "[1]; [5]", "result": "no significant change"}, {"measurement": "MyHC8 transcript levels", "setting": "[1]; [5]", "result": "no significant change"}, {"measurement": "Myf5 transcript levels", "setting": "[1]; [5]", "result": "no difference"}, {"measurement": "MyoD transcript levels", "setting": "[1]; [5]", "result": "no significant increase"}, {"measurement": "MyoG transcript levels", "setting": "[1]; [5]", "result": "no difference"}, {"measurement": "amount of centrally nucleated myofibers (CNM)", "setting": "tibialis of aged mice; 18-months old mice after cardiotoxin, apelin 0.5 μmol/kg/day, BGE-105 200 mg/kg/day", "result": "significant increase"}, {"measurement": "cross-sectional area of the tibialis", "setting": "tibialis of aged mice; aged mice, 3 and 7 days post cardiotoxin, apelin, BGE-105 50 and 200 mg/kg/d", "result": "significant increase in cross sectional area"}]}
